Article PMC6877910, “Astrocyte-Targeted Transporter-Utilizing Derivatives of Ferulic Acid Can Have Multifunctional Effects Ameliorating Inflammation and Oxidative Stress in the Brain” (Oxidative Medicine and Cellular Longevity, 2019)
Several values for one entry are separate records, joined by “and”; a condition that tells them apart may be missing. Equal entries are not always repeated. Where two headings read alike, the source gives them in different places.

Legend:
[1] = target: T1, purified human BACE1 (Homo sapiens, UniProt P56817); assay: BACE1 FRET inhibition assay (SensoLyte 520); type: biochemical; conditions: 1 and 10 μM; 30 min
T1 construct: purchased AnaSpec, Inc., Fremont, CA, USA SensoLyte 520 BACE1 Assay kit (catalogue number not given)
T1 sequence (P56817 46-501): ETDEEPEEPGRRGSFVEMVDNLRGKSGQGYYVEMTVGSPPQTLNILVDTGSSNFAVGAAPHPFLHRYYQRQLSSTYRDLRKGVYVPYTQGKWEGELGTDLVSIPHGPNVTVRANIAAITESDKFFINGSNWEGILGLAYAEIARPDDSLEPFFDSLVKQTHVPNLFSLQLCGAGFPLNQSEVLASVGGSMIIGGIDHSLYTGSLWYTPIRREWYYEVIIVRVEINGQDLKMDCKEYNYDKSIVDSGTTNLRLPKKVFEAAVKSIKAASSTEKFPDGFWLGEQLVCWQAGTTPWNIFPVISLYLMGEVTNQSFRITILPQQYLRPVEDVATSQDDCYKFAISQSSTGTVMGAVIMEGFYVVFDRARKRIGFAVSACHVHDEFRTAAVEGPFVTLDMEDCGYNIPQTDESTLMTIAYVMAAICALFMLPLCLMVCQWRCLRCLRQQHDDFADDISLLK
Text: A fluorometric assay was used to screen the inhibitory effect of the studied compounds on purified human BACE1 using a fluorescence resonance energy transfer (FRET) peptide technique (SensoLyte© 520 BACE1 Assay kit, AnaSpec, Inc., Fremont, CA, USA) according to the manufacturer's protocol. […] The sequence of the FRET peptide has been derived from the β-secretase cleavage site of β-amyloid precursor protein (APP) with Swedish mutation, which enhances β-secretase to process APP resulting in an early onset of AD. Thus, active β-secretase cleaved FRET substrate into two separate fragments resulting in the release of HiLyte™ Fluor 488 fluorescence that was measured by the EnVision plate reader (EnVision, PerkinElmer, Inc., Waltham, MA, USA) at λex 490 nm and λem 520 nm. […] The results were reported as percentages (%), with control sample representing 100% β-secretase activity.

[2] = target: T2, butyrylcholinesterase (BChE) (Mus musculus, UniProt Q03311); assay: biochemical; type: biochemical; conditions: mouse brain S9 subcellular fraction, 30 min end point, mean ± SD, n = 3; for IC50: read-out: BuChE IC50 value
T2 construct: mouse brain S9 fraction was prepared by homogenizing freshly collected mouse brain; from tissue; host or cells: mouse brain S9 fraction (9 000 x g supernatant)
T2 sequence (Q03311 30-603): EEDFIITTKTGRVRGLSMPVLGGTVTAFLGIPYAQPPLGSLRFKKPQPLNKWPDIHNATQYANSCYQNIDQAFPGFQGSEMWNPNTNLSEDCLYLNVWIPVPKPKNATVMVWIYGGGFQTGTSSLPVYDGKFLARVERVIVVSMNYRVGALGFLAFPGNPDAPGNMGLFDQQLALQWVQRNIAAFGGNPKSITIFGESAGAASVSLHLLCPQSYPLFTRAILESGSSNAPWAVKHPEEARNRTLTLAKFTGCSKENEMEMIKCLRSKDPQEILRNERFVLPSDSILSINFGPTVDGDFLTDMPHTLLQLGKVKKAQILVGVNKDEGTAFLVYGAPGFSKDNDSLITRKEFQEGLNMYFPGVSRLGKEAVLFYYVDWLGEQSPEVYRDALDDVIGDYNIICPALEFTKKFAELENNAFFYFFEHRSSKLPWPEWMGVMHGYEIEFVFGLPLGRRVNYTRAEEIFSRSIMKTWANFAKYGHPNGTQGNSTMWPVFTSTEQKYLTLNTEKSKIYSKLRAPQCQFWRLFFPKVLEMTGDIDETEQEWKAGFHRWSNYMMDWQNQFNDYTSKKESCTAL
Experimental: Briefly, mouse brain S9 fraction was prepared by homogenizing freshly collected mouse brain with 50 mM Tris-buffered saline (TBS) (pH 7.4) (1 : 4, w/v), centrifuging the homogenate at 9 000 × g for 20 min at 4°C and collecting the supernatant. The supernatant was then diluted at 1 : 10 with phosphate-buffered saline (100 mM; pH 7.0) and mixed with Ellman's reagent (5,5′-dithiobis-(2-nitrobenzoic acid); DTNB; 1 mM) and studied compounds in DMSO (DMSO concentration was less than 0.5%) on a 96-well plate as 3 parallel assays.

[3] = target: T3, LAT1 (Mus musculus, UniProt Q9Z127); assay: Ability to bind LAT1: inhibition of [14C]-L-leucine uptake in mouse primary astrocytes; type: cell-based; conditions: mean ± SD; for IC50: n = 3-4, read-out: IC50 in astrocytes (LAT1-probe substrate [14C]-L-leucine uptake)
T3 construct: mouse primary astrocytes, from which we have recently characterized LAT1 expression and function; endogenous in cells; host or cells: mouse primary astrocytes (cortex and hippocampi of 2-day-old wild-type and APP/PS1 mice)
T3 sequence (Q9Z127 whole entry): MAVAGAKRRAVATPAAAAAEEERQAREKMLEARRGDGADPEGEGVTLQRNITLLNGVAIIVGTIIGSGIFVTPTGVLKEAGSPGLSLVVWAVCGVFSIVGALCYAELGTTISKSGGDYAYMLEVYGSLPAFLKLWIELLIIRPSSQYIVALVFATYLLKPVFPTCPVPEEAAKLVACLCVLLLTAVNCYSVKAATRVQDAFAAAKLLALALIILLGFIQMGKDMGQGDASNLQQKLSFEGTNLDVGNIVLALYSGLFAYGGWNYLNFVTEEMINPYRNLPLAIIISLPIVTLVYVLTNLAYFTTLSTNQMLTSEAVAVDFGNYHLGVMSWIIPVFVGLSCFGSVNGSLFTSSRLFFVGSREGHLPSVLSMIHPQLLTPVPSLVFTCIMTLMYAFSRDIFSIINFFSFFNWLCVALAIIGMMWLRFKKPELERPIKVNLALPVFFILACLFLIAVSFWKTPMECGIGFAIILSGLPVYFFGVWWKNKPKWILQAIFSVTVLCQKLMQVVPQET
T3 sequence (P10852 whole entry partner): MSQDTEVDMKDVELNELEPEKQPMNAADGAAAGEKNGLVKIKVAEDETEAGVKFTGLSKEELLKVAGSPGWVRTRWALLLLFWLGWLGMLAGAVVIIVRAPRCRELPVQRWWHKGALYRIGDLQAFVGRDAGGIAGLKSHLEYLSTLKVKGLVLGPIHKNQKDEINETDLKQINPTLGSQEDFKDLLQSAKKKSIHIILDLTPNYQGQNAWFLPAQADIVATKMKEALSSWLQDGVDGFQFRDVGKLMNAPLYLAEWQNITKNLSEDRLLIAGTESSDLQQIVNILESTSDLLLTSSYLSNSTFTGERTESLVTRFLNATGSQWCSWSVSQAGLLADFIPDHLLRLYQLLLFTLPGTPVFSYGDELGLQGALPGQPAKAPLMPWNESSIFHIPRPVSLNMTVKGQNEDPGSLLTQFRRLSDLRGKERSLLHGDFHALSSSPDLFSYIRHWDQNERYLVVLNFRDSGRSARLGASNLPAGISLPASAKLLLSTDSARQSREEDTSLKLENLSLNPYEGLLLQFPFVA
Experimental: For the transporter binding studies, the astrocytes were seeded on 24-well plates with a density of 10 × 10^4 cells/well three days before the experiments. After removal of the culture medium, the cells were carefully washed with prewarmed HBSS (Hank's balance salt solution) containing choline chloride (125 mM), KCl (4.8 mM), MgSO4 (1.2 mM), KH2PO4 (1.2 mM), CaCl2 (1.3 mM), glucose (5.6 mM), and HEPES (25 mM) adjusted to pH 7.4 with 1 M NaOH. The cells were preincubated with 500 μL of prewarmed HBSS at 37°C for 10 min before the experiments. To study the ability of studied compounds to inhibit the uptake of a known LAT1 substrate, the cells were incubated at 37°C for 5 min with an uptake buffer (HBSS, 250 μL) containing 0.76 μM (0.25 mCi/mL or 9.85 MBq/mL) of [^14C]-L-leucine (PerkinElmer, Inc., Waltham, MA, USA) and 0.1-1000 μM of studied compound (or HBSS as blank). After incubation, the uptake was stopped by adding 500 μL of ice-cold HBSS and the cells were washed two times with ice-cold HBSS. The cells were then lysed with 500 μL of NaOH (0.1 M) for 60 min, and the lysate was mixed with 3.5 mL of Emulsifier safe cocktail (Ultima Gold, PerkinElmer, Inc., Waltham, MA, USA). The radioactivity in the cells was measured by liquid scintillation counting (MicroBeta^2 counter, PerkinElmer, Inc., Waltham, MA, USA). Half of maximum inhibitory concentration (IC50) values were calculated by nonlinear regression analysis (fitting the curve to log (concentration) vs. remaining normalized […]).

[4] = system: mTOR; assay: Total amount of mTOR (ELISA) in cells; type: cell-based, mouse; conditions: 100 μM; 48 h
Experimental: Enzyme-Linked Immunosorbent Assay (ELISA) kits were used (mTOR SimpleStep ELISA Kit and NFκB p65 Total SimpeStep ELISA Kit, Abcam, Cambridge, UK) to quantify mammalian (or mechanistic) target of rapamycin (mTOR) and transcription factor NF-κB amounts, respectively. […] The control wells were treated with the solvent only (0.5% DMSO). Cells were solubilized using the provided extraction buffer with the kit, incubated on ice for 20 minutes and centrifuged at 18 000 × g for 20 min at 4°C. The supernatants were stored at -80°C till the day of the analysis. Standards and samples were then analyzed following the manufacturer's protocol (ELISA sandwich method) and by reading the absorbance with the EnVision plate reader (EnVision, PerkinElmer, Inc., Waltham, MA, USA) at 450 nm. The results were analyzed as pmol of formed mTOR or NF-κB per mL.

[5] = Intracellular unbound drug concentration ratio (Kp,uu) in astrocytes; type: in vitro ADME; conditions: C57BL/6J, mouse, read-out: Kp,uu (unbound intracellular : extracellular ratio)
Experimental: The unbound fraction of FA and its derivatives 1-2 was determined at 10 μM in cell homogenate by using a Rapid Equilibrium Dialysis (RED) device (Thermo Fisher Scientific, Inc., Waltham, MA, USA). Briefly, the cell homogenate was prepared from astrocyte cell suspension (10 × 10^6 cells/mL) in HBSS with a SoniPerp 150 Plus disintegrator (MSE Ltd., London, UK) for 2 s × 3. 100 μL of cell homogenate spiked with the studied compound was added to the reaction chamber, and 350 μL of HBSS buffer was added to the buffer chamber of the RED plate. The dialysis plate was incubated at 37°C for 4 h with shaking. […]
The drug concentration ratio in astrocytes (Kp) was determined at 0.01-1.0 μM concentrations by comparing the cellular uptake from the cell lysates (0.1 M NaOH) to the concentration detected from the surrounding buffer (HBSS) collected before cell lysing as described by Mateus et al.: (3) Kp=Acell/Vcell/Cmedium, where Acell is the amount of compound in the cell lysate (nmol), Vcell is the astrocyte cell volume (0.05810^−15 L/cell) for 10 × 10^4 cells/well, and Cmedium is the compound concentration in the surrounding buffer. The unbound drug concentration ratio (Kp,uu) was then calculated by multiplying the drug concentration ratio (Kp) by unbound drug fraction (fu,cell) as described by Mateus et al.: (4) Kp,uu=Kp×fu,cell.

[6] = system: LAT1; conditions: human breast adenocarcinoma cells (MCF-7); previously determined values; cited from earlier work
[7] = mouse brain in vivo; previous study; cited from earlier work

Row | Structure (SMILES) | BACE1 inhibition [1] | IC50 [2] [µM] | IC50 [3] | Reduction of total amount of mTOR [4] | Kp uu ([5]; lower concentrations (<0.1 μM)) | IC50 [6] [µM] | Increase of the amount of mTOR [4] | FA released in the brain [7] | BuChE IC50 value [2] | IC50 in astrocytes (LAT1-probe substrate [14C]-L-leucine uptake) ([3]; n = 3-4) | Kp uu ([5]; throughout the studied concentrations (0.01-1.0 μM))
1 | COc1cc(C=CC(=O)Oc2cccc(CC(N)C(=O)O)c2)ccc1O (stereo not shown) [FA-derivative 3] | 81–91% | 236.1 ± 1.26 | 28.7 ± 1.15 µM | approximately 14% | – | – | – | – | – | – | –
2 | COc1cc(C=CC(=O)NCc2cccc(CC(N)C(=O)O)c2)ccc1O (stereo not shown) [FA-derivative 1] | 78–91% | 220.8 ± 1.14 | 2.2 µM and 2.15 µM | – | 0.25 to 2.14 | 14.2 | approximately 28% | did not release any FA | – | – | –
3 | COc1cc(/C=C/C(=O)O)ccc1O [FA, trans-4-hydroxy-3-methoxycinnamic acid, reference compound] | ~97% | – | – | did not affect | – | – | – | – | No inhibition | No inhibition | –
4 | COc1cc(C=CC(=O)Nc2cccc(CC(N)C(=O)O)c2)ccc1O (stereo not shown) [FA-derivative 2] | 91–97% | – | 8.9 ± 1.25 µM | approximately 32% | – | 1.1 | – | less than 5% | No inhibition | – | 0.83 to 1.74
